Experiment [1] concerns the target T1, TYK2-JH2 (Homo sapiens, UniProt P29597).
T1 construct: TYK JH2 enzyme mix (ChemPartnec CP20210818A-BV); purchased ChemPartner CP20210818A-BV
The experiment can be described thus: TYK2-JH2 HTRF binding assay (ligand efficiency). To be noted: calculated from IC50 of the TYK-JH2 binding assay (Equation 1). The method, then:
The following example describes the TYK2-JH2 HTRF binding assay used to determine the ligand efficiency of the TYK2 inhibitors.
To calculate ligand efficiency, Equation 1 is applied:
[formula] in which IC50 comes from the binding assay used to determine compound potency.
TYK JH2 enzyme mix (ChemPartnec CP20210818A-BV), tracer (ChemPartnec CP-0029472-051) and mAb Anti-6HIS Tb cryptate Gold (Cisbio: Cat No. 61H12TLA) mix were prepared in assay buffer (10 mM MgCl2, 20 mM HEPES pH 7.5, 0.01% Triton X-100, 1 mM DTT). Compounds diluted in DMSO (Final Concentrations 0.1 to 0.000005 [μM]) and enzyme mix (0.5 nM Final Concentration) were added to 384 well plates, briefly centrifuged and incubated at room temperature for 10 minutes. After incubation, tracer mix (Tracer-35 nM final concentration); (Mab Anti-6HIS Tb cryptate Gold-0.5× final)) was added, briefly centrifuged then incubate at room temperature 60 minutes. After incubation, plates were read by Envision TR-FRET (Ex340/Em495/520) protocol (PerkinElmer-Envision 2104 multilabel plate reader).

Experiment [2] deals with IL-12/pSTAT4. The experiment can be described thus: IL-12 induced pSTAT4 assay in NK-92 cells. It is filed as cell-based. The settings on record: Homo sapiens, NK92, IL-12 stimulation, read-out: Cellular potency (IL-12/pSTAT4). The method, then:
The following example describes the IL-12 induced pSTAT4 assay used to determine the cellular potency (IL-12/pSTAT4) of the TYK2 inhibitors.
NK-92 cells (human natural killer lymphoma cell line) were cultured in MEM α, nucleosides (Life Technologies, 22571020) 12.5% heat inactivated FBS (Dominique Dutscher, S1810), 12.5% heat inactivated Horse serum (Life Technologies, 26050088) and 1% Penicillin-Streptomycin (Life Technologies, 15140122), 5 ng/mL human IL-2 (R&D systems, 202-II/CF), 0.2 mM inositol (Sigma, PHR1351 lot LRAC4118), 0.1 mM β-mercaptoethanol (Life Technologies, 31350010), and 0.02 mM folic acid (Sigma, F8758).
NK-92 cells were starved overnight in starvation medium (Opti-MEM (ThermoFisher, 11058-021), 10% charcoal stripped FBS (ThermoFisher 12676-029), and 1% Penicillin (100U/ml)-Streptomycin (100 μg/ml) (ThermoFisher, ref 15140122)), then plated in a 96-well tissue culture plate (20K cells/well) prior to pre-incubation with test compounds (Final Concentration [nM] 1000 to 0.05) for 30 minutes at 37° C. Cells were stimulated with IL-12 (Final Concentration l0 ng/ml) for 30 minutes at 37° C., and terminated by addition of lysis buffer (MSD K150PAD-2). pSTAT4 (Tyr693) was detected using the Mesa Scale Discovery platform (MSD K150PAD-2), according to manufacturer's instruction. Briefly, cell lysates were added to pre-blocked plates and incubated for 1 hour at room temperature. Plates were washed and incubated with detection antibody for 1 hour at room temperature. Plates were washed and Read Buffer was added prior to measurement on the MSD (1300 MSD Quickplex SQ 120).

SMILES strings stand for the structures.

T1 sequence (P29597 589-875 limits assumed): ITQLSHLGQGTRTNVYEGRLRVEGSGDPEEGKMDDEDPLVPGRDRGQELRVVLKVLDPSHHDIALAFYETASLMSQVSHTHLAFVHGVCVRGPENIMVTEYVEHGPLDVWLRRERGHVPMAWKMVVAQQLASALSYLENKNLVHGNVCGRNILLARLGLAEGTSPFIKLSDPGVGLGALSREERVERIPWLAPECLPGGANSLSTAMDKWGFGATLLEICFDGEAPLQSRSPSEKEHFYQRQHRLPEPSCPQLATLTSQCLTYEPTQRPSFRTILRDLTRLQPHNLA

With `C[C@H](NC1COC1)c1ccc(Nc2cc(Nc3ccccc3S(C)(=O)=O)ncn2)nc1` [Compound 40, I-N^4-(2-(methylsulfonyl)phenyl)-N^6-(5-(1-(oxetan-3-ylamino)ethyl)128yridine-2-yl)pyrimidine-4,6-diamine], in experiment [1], the “Ligand Efficiency” value was “††† (†††: >0.39)”. Also, the IC50 in experiment [2] was 0.1 to 1 µM.

As to `CS(=O)(=O)c1ccccc1Nc1cc(Nc2ccc(C3(NC4COC4)CC3)cn2)ncn1` [Compound 41, N^4-(2-(methylsulfonyl)phenyl)-N^6-(5-(1-(oxetan-3-ylamino)cyclopropyl)130yridine-2-yl)pyrimidine-4,6-diamine], the “Ligand Efficiency” value in experiment [1] was “†† (††: 0.37-0.39)”. Besides, in experiment [2], the IC50 lay in the range of 0.1 to 1 µM.

Consider `CS(=O)(=O)c1ccccc1Nc1cc(Nc2ccc(N3CCOCC3)cn2)ncn1` [Compound 42, N^4-(2-(methylsulfonyl)phenyl)-N^6-(5-morpholinopyridin-2-yl) pyrimidine-4,6-diamine], for which, in experiment [1], the “Ligand Efficiency” value was “††† (†††: >0.39)”. The IC50 in experiment [2] fell in the range of 0.1 to 1 µM.

Turning to `CS(=O)(=O)c1ccccc1Nc1cc(Nc2ccc(C(=O)NC3CCOC3)cn2)ncn1` (centres unmarked) [Compound 43, 6-(6-(2-(methylsulfonyl)phenylamino)pyrimidin-4-ylamino)-N-(tetrahydrofuran-3-yl)nicotinamide], in experiment [1], the “Ligand Efficiency” value is “†† (††: 0.37-0.39)”. For the same compound, the IC50 in experiment [2] was greater than 1 µM.

Turning to `Cc1nccc(Nc2cc(Nc3ccccc3C(N)=O)ncn2)n1` [Compound 48, 2-((6-((2-methylpyrimidin-4-yl)amino)pyrimidin-4-yl)amino) benzamide], the “Ligand Efficiency” value in experiment [1] is listed as “††† (†††: >0.39)”. Besides, the IC50 in experiment [2] is 0.1 to 1 µM.

Regarding `Cc1cccc(Nc2cc(Nc3cccnc3C(N)=O)ncn2)n1` [Compound 50, 3-((6-((6-methylpyridin-2-yl)amino)pyrimidin-4-yl)amino) picolinamide], the “Ligand Efficiency” value in experiment [1] was “††† (†††: >0.39)”. The IC50 in experiment [2] is 0.1 to 1 µM.

Take `Cc1cccc(Nc2cc(Nc3ccncc3C(N)=O)ncn2)n1` [Compound 51, 4-((6-((6-methylpyridin-2-yl)amino)pyrimidin-4-yl)amino) nicotinamide]: the “Ligand Efficiency” value in experiment [1] is recorded as “††† (†††: >0.39)”. Further, the IC50 in experiment [2] is greater than 1 µM.

Regarding `Cc1cccc(Nc2cc(Nc3ncccc3C(N)=O)ncn2)n1` [Compound 52, 2-((6-((6-methylpyridin-2-yl)amino)pyrimidin-4-yl)amino) nicotinamide], the “Ligand Efficiency” value in experiment [1] is recorded as “††† (†††: >0.39)”. In experiment [2], the IC50 lay within 0.1 to 1 µM.

Regarding `C[C@H]1COCCN1c1ccc(Nc2cc(Nc3ccccc3S(C)(=O)=O)ncn2)nc1` [Compound 54, (S)—N^4-(5-(3-methylmorpholino)144yridine-2-yl)-N^6-(2-(methylsulfonyl)phenyl)pyrimidine-4,6-diamine], in experiment [1], the “Ligand Efficiency” value is “† (†: <0.37)”. Also, the IC50 in experiment [2] was greater than 1 µM.

As to `Cc1ccnc(Nc2cc(Nc3ccccc3C(N)=O)ncn2)n1` [Compound 58, 2-(6-(4-methylpyrimidin-2-ylamino)pyrimidin-4-ylamino)benzamide], the “Ligand Efficiency” value in experiment [1] is recorded as “††† (†††: >0.39)”. In addition, the IC50 in experiment [2] is greater than 1 µM.

Consider `Cc1cccc(Nc2cc(Nc3cccnc3S(C)(=O)=O)ncn2)n1` [Compound 59, N^4-(6-methylpyridin-2-yl)-N^6-(2-(methylsulfonyl)149yridine-3-yl) pyrimidine-4,6-diamine], for which the “Ligand Efficiency” value in experiment [1] is given as “††† (†††: >0.39)”. Moreover, in experiment [2], the IC50 was greater than 1 µM.

Turning to `Cc1cccc(Nc2cc(Nc3ccncc3S(C)(=O)=O)ncn2)n1` [Compound 60, N^4-(6-methylpyridin-2-yl)-N^6-(3-(methylsulfonyl)151yridine-4-yl) pyrimidine-4,6-diamine], the “Ligand Efficiency” value in experiment [1] is “††† (†††: >0.39)”. Besides, in experiment [2], the IC50 is greater than 1 µM.

Regarding `Cc1cccc(Nc2cc(Nc3cnccc3C(N)=O)ncn2)n1` [Compound 61, 3-((6-((6-methylpyridin-2-yl)amino)pyrimidin-4-yl)amino) isonicotinamide], the “Ligand Efficiency” value in experiment [1] is “††† (†††: >0.39)”. The IC50 in experiment [2] was 0.1 to 1 µM.

Regarding `COc1cc(Nc2cc(Nc3ncccc3S(C)(=O)=O)ncn2)ncc1NC1(C)COC1` [Compound 62], the “Ligand Efficiency” value in experiment [1] is on record as “†† (††: 0.37-0.39)”. Besides, in experiment [2], the IC50 was greater than 1 µM.

Take `Cc1ccnc(Nc2cc(Nc3ccccc3P(C)(C)=O)ncn2)c1` [Compound 63, N^4-(2-(dimethylphosphoryl)phenyl)-N^6-(4-methylpyridin-2-yl) pyrimidine-4,6-diamine]: the “Ligand Efficiency” value in experiment [1] is “††† (†††: >0.39)”. In addition, in experiment [2], the IC50 fell in the range of 0.1 to 1 µM.

Turning to `CS(=O)(=O)c1cccnc1Nc1cc(Nc2ncccc2F)ncn1` [Compound 64, N^4-(3-fluoropyridin-2-yl)-N^6-(3-(methylsulfonyl)154yridine-2-yl) pyrimidine-4,6-diamine], the “Ligand Efficiency” value in experiment [1] is on record as “††† (†††: >0.39)”. The IC50 in experiment [2] was greater than 1 µM.

In the case of `COc1ccnc(Nc2cc(Nc3cccc(C)n3)ncn2)c1S(C)(=O)=O` [Compound 65, N^4-(4-methoxy-3-(methylsulfonyl)155yridine-2-yl)-N^6-(6-methylpyridin-2-yl)pyrimidine-4,6-diamine], the “Ligand Efficiency” value in experiment [1] is “††† (†††: >0.39)”. Also, the IC50 in experiment [2] was greater than 1 µM.

Consider `Cn1ccc(Nc2cc(Nc3ccccc3S(C)(=O)=O)ncn2)n1` [Compound 66, N^4-(1-methyl-1H-pyrazol-3-yl)-N^6-(2-(methylsulfonyl)phenyl) pyrimidine-4,6-diamine], for which the “Ligand Efficiency” value in experiment [1] is “††† (†††: >0.39)”. Further, the IC50 in experiment [2] was greater than 1 µM.

`Cn1ccc(Nc2cc(Nc3ccccc3C(N)=O)ncn2)n1` [Compound 67, 2-((6-((1-methyl-1H-pyrazol-3-yl)amino)pyrimidin-4-yl)amino)benzamide]: the “Ligand Efficiency” value in experiment [1] was “††† (†††: >0.39)”. Moreover, the IC50 in experiment [2] was greater than 1 µM.

As to `Cc1cccnc1Nc1cc(Nc2ccccc2C(N)=O)ncn1` [Compound 68, 2-((6-((3-methylpyridin-2-yl)amino)pyrimidin-4-yl)amino) benzamide], the “Ligand Efficiency” value in experiment [1] is “††† (†††: >0.39)”. Also, in experiment [2], the IC50 was greater than 1 µM.

Turning to `CS(=O)(=O)c1ccccc1Nc1cc(NC(=O)C2CC2)ncn1` [Compound 69, N^4-(cyclopropylcarbonyl)-N^6-(2-(methylsulfonyl)phenyl)pyrimidine-4,6-diamine], the “Ligand Efficiency” value in experiment [1] is recorded as “††† (†††: >0.39)”. Further, in experiment [2], the IC50 is greater than 1 µM.

As for `COc1ccc(Nc2cc(NC(=O)C3CC3)ncn2)c(C(N)=O)c1` [Compound 70, 2-((6-(cyclopropanecarboxamido)pyrimidin-4-yl)amino)-5-methoxy benzamide], the “Ligand Efficiency” value in experiment [1] is on record as “††† (†††: >0.39)”. Moreover, the IC50 in experiment [2] was greater than 1 µM.

Regarding `Cc1cccc(Nc2cc(Nc3ncccc3CS(C)(=O)=O)ncn2)n1` [Compound 71, N^4-(6-methylpyridin-2-yl)-N^6-(3-((methylsulfonyl)methyl) 162yridine-2-yl)pyrimidine-4,6-diamine], in experiment [1], the “Ligand Efficiency” value was “††† (†††: >0.39)”. Besides, the IC50 in experiment [2] is greater than 1 µM.

For `Cn1cc(-c2ccnc(Nc3cc(Nc4ccc(NC5(C)COC5)cn4)ncn3)c2S(C)(=O)=O)cn1` [Compound 72, N^4-(4-(1-methyl-1H-pyrazol-4-yl)-3-(methylsulfonyl)164yridine-2-yl)-N^6-(5-(3-methyloxetan-3-ylamino)164yridine-2-yl)pyrimidine-4,6-diamine], the “Ligand Efficiency” value in experiment [1] is reported as “† (†: <0.37)”. In experiment [2], the IC50 is greater than 1 µM.

Consider `CC1(Nc2cnc(Nc3cc(Nc4ncccc4S(C)(=O)=O)ncn3)cn2)COC1` [Compound 74, N^4-(5-(3-methyloxetan-3-ylamino)pyrazin-2-yl)-N^6-(3-(methylsulfonyl)167yridine-2-yl)pyrimidine-4,6-diamine], for which, in experiment [1], the “Ligand Efficiency” value was “††† (†††: >0.39)”. The IC50 in experiment [2] is 0.1 to 1 µM.
